Laboratory results as given in patent publication US11739074B2, “Ras inhibitors” (Revolution Medicines, Inc., priority 2019, dated 2023).

Experiments:
Format in all cases: cell-based
[1] = system: AsPC-1 (K-Ras G12D); assay: CellTiter-Glo cell viability assay, AsPC-1; settings: Homo sapiens, ASPC1, 120 h, AsPC-1, K-Ras G12D, 5-day treatment; read-out: AsPC-1 Cell Viability IC50
Method in brief: (§1)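 Luminescence from CellTiter-Glo serves as the viability read-out after cells are treated with compound for 5 days. Each well's signal is divided by the DMSO average and multiplied by 100, and curves are fitted by four-parameter logistic regression.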

[2] = system: NCI-H358 (K-Ras G12C); assay: CellTiter-Glo cell viability assay, H358; settings: Homo sapiens, NCI-H358, 120 h, NCI-H358, K-Ras G12C, 5-day treatment; read-out: H358 Cell Viability IC50
Method in brief: as §1

[3] = system: AsPC-1 (K-Ras G12D); assay: Potency assay: pERK in AsPC-1 cells; settings: Homo sapiens, ASPC1; AsPC-1 cells, K-Ras G12D; read-out: pERK EC50 (AsPC-1 KRAS G12D)

Structure (SMILES)	IC50 [1] [nM]	IC50 [2] [nM]	EC50 [3] [nM]
CCn1c(-c2cccnc2[C@H](C)OC)c2c3cc(ccc31)-c1csc(n1)C[C@H](NC(=O)[C@H](C(C)C)N(C)C(=O)N(C)[C@H]1CCN(C(=O)[C@H]3CN3)C1)C(=O)N1CCC[C@H](N1)C(=O)OCC(C)(C)C2 [Compound 296]	1000 to 10000	10 to 100	< 5000
CCn1c(-c2cccnc2[C@H](C)OC)c2c3cc(ccc31)-c1csc(n1)C[C@H](NC(=O)[C@H](C(C)C)N(C)C(=O)N1CCN(C(=O)[C@H]3CN3)[C@@H](C)C1)C(=O)N1CCC[C@H](N1)C(=O)OCC(C)(C)C2 [Compound 297]	100 to 1000	10 to 100	< 5000
CCn1c(-c2cccnc2[C@H](C)OC)c2c3cc(ccc31)-c1csc(n1)C[C@H](NC(=O)[C@H](C(C)C)N(C)C(=O)N1CCN(C(=O)[C@@H]3CN3)[C@@H](C)C1)C(=O)N1CCC[C@H](N1)C(=O)OCC(C)(C)C2 [Compound 298]	100 to 1000	10 to 100	< 5000
CCn1c(-c2cccnc2[C@H](C)OC)c2c3cc(ccc31)-c1csc(n1)C[C@H](NC(=O)[C@H](C(C)C)N(C)C(=O)N1CCN(C(=O)[C@H]3CN3)[C@H](C)C1)C(=O)N1CCC[C@H](N1)C(=O)OCC(C)(C)C2 [Compound 299]	100 to 1000	< 10	< 5000
CCn1c(-c2cccnc2[C@H](C)OC)c2c3cc(ccc31)-c1csc(n1)C[C@H](NC(=O)[C@H](C(C)C)N(C)C(=O)N1CCN(C(=O)[C@@H]3CN3)[C@H](C)C1)C(=O)N1CCC[C@H](N1)C(=O)OCC(C)(C)C2 [Compound 300]	100 to 1000	10 to 100	< 5000
CCn1c(-c2cccnc2[C@H](C)OC)c2c3cc(ccc31)-c1csc(n1)C[C@H](NC(=O)[C@H](C(C)C)N(C)C(=O)N1CCN(C(=O)[C@H]3CN3)C[C@H]1C)C(=O)N1CCC[C@H](N1)C(=O)OCC(C)(C)C2 [Compound 301]	100 to 1000	< 10	< 5000
CCn1c(-c2cccnc2[C@H](C)OC)c2c3cc(ccc31)-c1csc(n1)C[C@H](NC(=O)[C@H](C(C)C)N(C)C(=O)N1CCN(C(=O)[C@@H]3CN3)C[C@H]1C)C(=O)N1CCC[C@H](N1)C(=O)OCC(C)(C)C2 [Compound 302]	100 to 1000	10 to 100	< 5000
CCn1c(-c2cccnc2[C@H](C)OC)c2c3cc(ccc31)-c1cc(O)cc(c1)C[C@H](NC(=O)[C@H](C1CCCC1)N(C)C(=O)CN(C)C(=O)[C@H]1N[C@H]1C1(C#N)CC1)C(=O)N1CCC[C@H](N1)C(=O)OCC(C)(C)C2 [Compound 316]	1000 to 10000	10 to 100	< 5000
CCn1c(-c2cccnc2[C@H](C)OC)c2c3cc(ccc31)-c1cc(O)cc(c1)C[C@H](NC(=O)[C@H](C1CCCC1)N(C)C(=O)CN(C)C(=O)[C@H]1[C@@H](C3CC3)N1CCCOC)C(=O)N1CCC[C@H](N1)C(=O)OCC(C)(C)C2 (stereo partly drawn) [Compound 317]	10 to 100	10 to 100	< 5000
CCn1c(-c2cccnc2[C@H](C)OC)c2c3cc(ccc31)-c1cc(cc(C(F)F)c1)C[C@H](NC(=O)[C@H](C1CCCC1)N(C)C(=O)CN(C)C(=O)[C@@H]1N[C@@H]1C1CC1)C(=O)N1CCC[C@H](N1)C(=O)OCC(C)(C)C2 [Compound 320]	100 to 1000	100 to 1000	< 5000
CCn1c(-c2cc(N3CCN(C)CC3)cnc2[C@H](C)OC)c2c3cc(ccc31)-c1cc(O)cc(c1)C[C@H](NC(=O)[C@H](C1CCCC1)N(C)C(=O)CN(C)C(=O)[C@@H]1N[C@@H]1C1CC1)C(=O)N1CCC[C@H](N1)C(=O)OCC(C)(C)C2 [Compound 325]	< 10	< 10	< 5000
CCn1c(-c2cccnc2[C@H](C)OC)c2c3cc(ccc31)-c1csc(n1)C[C@H](NC(=O)[C@H](C(C)C)N(C)C(=O)N1CCC(CN(C)C(=O)[C@H]3CN3)CC1)C(=O)N1CCC[C@H](N1)C(=O)OCC(C)(C)C2 [Compound 326]	100 to 1000	10 to 100	< 5000
